Experimental data reported in US20200129511A1, “COMPOUNDS AND METHODS FOR TREATMENT OF NAFLD AND NASH” (Arena Pharmaceuticals, Inc., priority 2017, published 2020).
Entries after “also recorded” stand apart in the source; their conditions may differ.

Key:
[1] = oral pharmacokinetics in monkey; assay type: in vivo; details: Male cynomolgus monkey, 10 mg/kg, 100% PEG400
[2] = oral pharmacokinetics in mouse; assay type: in vivo, Male C57B1 mouse
[3] = stability in rat liver microsomes; assay type: in vitro ADME
[4] = tested on: Male C57BL/6 mice fed high fat diet; assay: High Fat Diet (HFD) mouse model of non-alcoholic fatty liver disease; assay type: in vivo; details: five times per week for six weeks
Excerpt: Male C57BL/6 mice (8 weeks) were fed either normal or high fat diet (HFD) (60% TD06414, Envigo) and given water ad libitum. […] At 20 weeks, mice were sacrificed and serum plasma was collected for measurement of various biochemical parameters, including serum transaminases.

[5] = tested on: ob/ob Mice; assay: oGTT in ob/ob mice; assay type: in vivo, mouse; details: 3 mg/kg
[6] = tested on: rat; details: 14-day
[7] = tested on: T2DM patients; details: cited from earlier work
[8] = target: hERG channel (Homo sapiens, UniProt Q12809); assay: hERG patch clamp study; assay type: cell-based
[9] = tested on: Caco-2 monolayers; assay: permeability across Caco-2 monolayers; assay type: in vitro ADME
[10] = tested on: male C57bl/6j mice; assay: oral glucose tolerance test (oGTT) in normal lean mice; assay type: in vivo, mouse; details: 1 mg/kg and 10 mg/kg p.o.
Method: (§1) Animals were grouped in regular cages (rats 2/cage, mice 4/cage) with bedding under normal light conditions (lights on 6:30 am-6:30 pm). They were given ad libitum access to food and water. Animals were allowed to acclimate to the facility for several days before handling.
Mouse: Following 2 handling sessions, animals were fasted for 3-16 h.
The oral glucose tolerance test (oGTT) was executed as follows: Compound was administered 0-30 min prior to first blood sample. At time 0, a tail nick and glucose test was performed with a hand-held glucometer, then a bolus of glucose ([…], p.o.) was administered. Glucose was again tested at 20, 40, 60, and 120 minutes post glucose administration. During the entire oGTT, a total volume of approximately 10 drops of blood was collected.

[11] = stability in human liver microsomes; assay type: in vitro ADME
[12] = tested on: Cynomolgus monkey; assay: oGTT in normal cynomolgus monkey; assay type: in vivo; details: 3 mg/kg
[13] = tested on: Sprague-Dawley rat; assay: oral glucose tolerance test (oGTT) in Sprague-Dawley rat; assay type: in vivo
Method: as §1
Rat: Animals are fasted 3-16 h.
The oral glucose tolerance test (OGTT) was executed as follows: At time minus 30 min, blood was collected via a tail nick and a glucose test performed with a hand-held glucometer, and compound was then administered. At time 0, blood was again collected for glucose reading and then a bolus of glucose (3 g/kg p.o., 6 mL/kg) administered. Blood glucose levels were further tested at 30, 60, and 120 min post glucose administration. During the entire oGTT, a total volume of approximately 8 drops of blood was collected. Rats were used twice with a one week lapse between experiments.

[14] = oral pharmacokinetics in dog; assay type: in vivo; details: Male beagle dog, 7.85 mg/kg, 100% PEG400
[15] = oral pharmacokinetics in rat; assay type: in vivo; details: Male Sprague-Dawley rat, 10 mg/kg, 40% HPβCD
[16] = tested on: healthy male volunteers; details: cited from earlier work
[17] = tested on: anesthetized Guinea Pig; assay: cardiovascular effects in the anesthetized Guinea Pig; assay type: in vivo; details: cumulative doses up to 5 mg/kg i.v., compared to vehicle controls
[18] = tested on: ZDF rat; assay: oGTT in ZDF rat; assay type: in vivo; details: 3 mg/kg
[19] = tested on: dog; details: 7-day
[20] = tested on: mice fed a high-fat diet; details: cited from earlier work
[21] = Male C57B1 mouse, 10 mg/kg, 40% HPβCD
[22] = 100 or 500 mg single-dose or 500 mg once daily for 14 days
[23] = multiple dosing, compared to baseline
[24] = Sprague-Dawley rat, 3-30 mg/kg PO
[25] = healthy male volunteers, 2.5-800 mg
[26] = oral single-dose, compared with placebo
[27] = oral administration, mice fed a high-fat diet

Chain of hERG channel (Q12809 whole entry): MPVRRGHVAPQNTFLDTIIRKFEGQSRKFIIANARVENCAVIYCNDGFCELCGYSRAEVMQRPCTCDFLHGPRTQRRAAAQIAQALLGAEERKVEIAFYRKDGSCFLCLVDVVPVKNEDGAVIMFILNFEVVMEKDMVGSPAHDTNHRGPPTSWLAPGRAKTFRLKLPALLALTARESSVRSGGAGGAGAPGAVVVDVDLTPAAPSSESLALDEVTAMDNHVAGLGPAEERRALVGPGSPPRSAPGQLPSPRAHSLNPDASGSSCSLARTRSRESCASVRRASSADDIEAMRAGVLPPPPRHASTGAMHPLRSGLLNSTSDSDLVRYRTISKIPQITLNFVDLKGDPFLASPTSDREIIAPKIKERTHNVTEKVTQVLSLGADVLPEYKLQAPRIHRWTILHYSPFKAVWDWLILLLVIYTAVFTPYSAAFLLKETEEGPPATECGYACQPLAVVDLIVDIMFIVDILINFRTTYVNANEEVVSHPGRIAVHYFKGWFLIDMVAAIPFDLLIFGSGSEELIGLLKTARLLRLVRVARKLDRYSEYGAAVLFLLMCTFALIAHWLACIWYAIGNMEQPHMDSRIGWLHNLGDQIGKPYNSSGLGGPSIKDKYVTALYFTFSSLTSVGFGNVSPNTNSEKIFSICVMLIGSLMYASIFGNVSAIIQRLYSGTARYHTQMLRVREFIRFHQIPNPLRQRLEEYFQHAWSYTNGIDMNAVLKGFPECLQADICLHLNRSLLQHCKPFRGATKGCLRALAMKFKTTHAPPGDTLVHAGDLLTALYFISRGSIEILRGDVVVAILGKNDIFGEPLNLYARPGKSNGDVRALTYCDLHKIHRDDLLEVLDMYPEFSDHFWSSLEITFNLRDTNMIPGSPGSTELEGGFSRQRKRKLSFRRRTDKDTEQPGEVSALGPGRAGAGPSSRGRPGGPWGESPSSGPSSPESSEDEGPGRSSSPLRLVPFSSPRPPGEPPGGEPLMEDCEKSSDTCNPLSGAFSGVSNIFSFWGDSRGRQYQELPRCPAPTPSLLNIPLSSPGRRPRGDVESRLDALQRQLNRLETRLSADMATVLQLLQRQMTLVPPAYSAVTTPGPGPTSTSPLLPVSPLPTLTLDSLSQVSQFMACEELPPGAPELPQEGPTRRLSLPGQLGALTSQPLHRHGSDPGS

With `COc1c(Nc2ccc(S(C)(=O)=O)nc2C)ncnc1OC1CCN(C(=O)OC(C)C)CC1` [Compound 1, 4-[6-(6-Methanesulfonyl-2-methyl-pyridin-3-ylamino)-5-methoxy-pyrimidin-4-yloxy]-piperidine-1-carboxylic acid isopropyl ester] the “% F” value [1] was 68.8%, the AUCinf [1] was 64180 ng·h/mL and the Cmax [1] was 4803 ng/mL. It also gave a tmax [1] of 6 h, an AUCinf [2, 21] of 319953 ng·h/mL and a Cmax [2, 21] of 25833 ng/mL. For the same molecule, the tmax [2, 21] was 2 h, the “exposure after oral dosing” value ([2]; mouse) was “high” and the “t1/2 in liver microsomes” value [3] was greater than 1 h. The “increases in serum ALT caused by high fat diet” value ([4]; HFD mice, 3, 10 and 30 mg/kg/day) was “blocked”, the “Blood glucose AUC (% of vehicle group)” value [5] was 78.4 ± 5.1 % of vehicle group and the preliminary safety findings [6] was “no obvious liabilities”. The hypoglycemia [7, 22] was “not associated with hypoglycemia”, the tolerability [7, 22] was “well tolerated” and the “plasma systemic exposure versus dose” value [7] was “increased with increased dose”. The “post-meal gastric insulinotropic peptide concentration” value [7, 23] was “increased”, the “post-meal total glucagon-like peptide 1 concentration” value [7, 23] was “increased” and the “time to attain steady-state” value ([7]; multiple-dose administration) was “approximately 8 days”. For the same molecule, the “plasma systemic exposure after multiple-dose administration” value ([7]; multiple-dose versus single-dose) was “approximately two-fold greater”, the “glucose excursion during an oral glucose tolerance test” value ([7]; single-dose, compared with placebo) was “decreased” and the IC50 [8] was 13 ± 0.2 µM. The “permeability across Caco-2 monolayers, A to B” value ([9]; A to B) was 26 ×10⁻⁶ cm/s, the “permeability across Caco-2 monolayers, B to A” value ([9]; B to A) was 15 ×10⁻⁶ cm/s and the “AUCglu during oGTT” value [10] was “significant reduction; also recorded: significant main effect”. For the same molecule, the “t1/2 in liver microsomes” value [11] was greater than 1 h, the “Compd exposure upon oGTT” value [12] was 112 ± 16.9 ng/mL and the “Blood glucose AUC (% of vehicle group)” value ([12]; oGTT) was 82.8 ± 1.7 % of vehicle group. For the same molecule, the “Compd exposure upon oGTT” value ([13]; SD rats, 3 mg/kg) was 482 ± 116 ng/mL, the “Blood glucose AUC (% of vehicle group)” value ([13]; SD rats, 3 mg/kg, oGTT) was 85.1 ± 1.9 % of vehicle group and the “AUCglu during oGTT” value [13, 24] was “markedly reduced; also recorded: significant main effect”. The glucose handling [13, 24] was “significantly improved”, the “% F” value [14] was 22.1% and the AUCinf [14] was 43743 ng·h/mL. For the same molecule, the Cmax [14] was 1983 ng/mL, the tmax [14] was 8 h and the “% F” value [15] was 72%. The AUCinf [15] was 12471 ng·h/mL, the Cmax [15] was 1390 ng/mL and the tmax [15] was 1 h. For the same molecule, the hypoglycemia [16, 25] was “not associated with hypoglycemia”, the “systemic exposure in plasma versus dose” value [16, 25] was “increased in proportion to the dose” and the tolerability [16, 25] was “well tolerated”. The “influence of food on systemic exposure in plasma” value ([16]; healthy male volunteers, coadministration of food) was “not influenced by coadministration of food”, the terminal elimination half-life ([16]; healthy male volunteers, oral suspension formulation) was roughly 13 h and the glucose excursion [16, 26] was “did not significantly decrease”. For the same molecule, the insulin secretion [16, 26] was “did not significantly decrease glucose excursion or increase insulin secretion”, the “postmeal plasma glucagon-like peptide 1 (GLP-1) concentration” value [16, 26] was “increased” and the “postmeal plasma glucose-dependent insulinotropic peptide (GIP) concentration” value [16, 26] was “increased”. For the same molecule, the “postmeal plasma peptide YY (PYY) concentration” value [16, 26] was “increased”, the “effects on mean arterial blood pressure (MAP), heart rate (HR) or electrocardiogram (ECG)” value [17] was “did not produce any dose-related, statistically significant effects” and the “Compd exposure upon oGTT” value [18] was 1592 ± 128 ng/mL. The “Blood glucose AUC (% of vehicle group)” value ([18]; oGTT) was 72.8 ± 6.3 % of vehicle group and the preliminary safety findings [19] was “no obvious liabilities”.

For `CCc1cnc(N2CCC(c3nc(COc4ccc(-n5cnnn5)cc4)cs3)CC2)nc1` [MBX-2982], the “increases in serum ALT caused by high fat diet” value ([4]; HFD mice, 10 mg/kg/day) is given as “blocked by treatment with Compound 1, but not MBX-2982”, the “hepatic antilipogenesis effects in GPR119 KO mice” value ([20]; GPR119 KO mice) is given as “abolished” and the “expression levels of SREBP-1 and lipogenesis-related genes” value [20, 27] is given as “potently inhibited”. The hepatic lipid accumulation [20, 27] was “potently inhibited”.
